Assay results taken from patent US20150231209A1, “STIMULATION OF OVARIAN FOLLICLE DEVELOPMENT AND OOCYTE MATURATION” (THE BOARD OF TRUSTEES OF THE LELAND STANFORD JUNIOR …, priority 2012, published 2015).

Legend:
PTEN = PTEN (Homo sapiens, UniProt P60484); conditions: read-out: IC50, inhibits PTEN; cited from earlier work
ovarian grafts = experiment: Ovarian grafting under kidney capsule of FSH-treated hosts: graft weights and follicle counting; format: in vivo, mice
Experimental: FIG. 3. Additive effects of Hippo signaling disruption and Akt stimulation promoted secondary follicle growth. A) Secondary follicles are responsive to IVA treatment. Secondary follicles (115 um in diameter) were isolated from mice at day 10 of age and cultured in vitro with the standard IVA protocol (first day with bPV(hopic) at 3 mM and 740YP at 15 ug/ml, followed by one more day with 740YP alone), followed by treatment with daily FSH (100 ng/ml) for two more days (IVA+FSH). The control groups were either treatment with media alone for four days or treated with the IVA reagent for two days followed by media alone (IVA alone). B) Ovarian fragmentation and IVA treatment led to additive effects on ovarian weight gain and secondary follicle growth. Paired ovaries from mice at day 10 of age were fragmented into three pieces. Fragments from one side were treated with the IVA protocol (bpV(hopic) at 30 uM and 740YP at 150 ng/ml for one day, followed by one more day with 740YP only) whereas fragments from the contralateral side were incubated in media alone. Ovarian fragments were then allo-transplanted into kidney capsules of adult ovariectomized mice with hosts injected with FSH (daily at 1 IU/animal). Five 5 days later, ovarian grafts were retrieved, fixed and weighted. Left panel: graft weights; right panel: Follicle dynamics of grafted ovarian fragments. Percentages of follicles at different stages were determined based on serial sections of grafts. C, Follicle dynamics before and after grafting of intact and fragmented murine ovaries with or without treatment with Akt stimulators. Left: total follicle numbers, Right: follicle dynamics. n=4. Same letter symbols indicate significant differences (p<0.05). D-F. Vitrified human cortical strips were thawed and fragmented into cubes before treatment with Akt stimulators for 2 days followed by grafting into immune-deficient mice for 4 weeks. D. Cortical strips before grafting. Arrow: a secondary follicle, arrowheads: primordial/primary follicles. Scale bar, 100 μm. E. A kidney graft in situ (left) and after isolation (right), showing an antral follicle. F. Histology of two large antral follicles with the side view of one showing an oocyte at the germinal vesicle stage (arrow). Scale bar, 1 mm. Mean±SEM; * p<0.05.
(§1) FIG. 7. Pre-treatment with verteporfin and CCN2 antibodies suppressed fragmentation-induced ovarian growth. A, Pretreatment with verteporfin suppressed fragmentation-induced increases in CCN2, but not AMH, transcript levels. Juvenile mice were injected i.p. with verteporfin for 3 h before retrieving ovaries for fragmentation. At 4 h after incubation, transcript levels for CCN2 and AMH were determined by real-time RT-PCR. n=6-12. […] Ovaries from juvenile mice pre-injected with verteporf in for 3 h were fragmented and incubated for 1 h before grafting into FSH-treated hosts for 5 days followed by determination of graft weights. Numbers in parentheses are number of samples used. C, Follicle dynamics of intact and fragmented ovarian grafts from animals with or without verteporf in (VP) pretreatment. n=3-5. D, Incubation of fragmented ovaries with CCN2 antibodies suppressed ovarian weight increases. Paired ovaries were fragmented into 3 pieces followed by incubation with CCN2 antibodies or non-immune-IgG for 18 h before grafting for 5 days. Mean±SEM; *p<0.05.
Left upper panel: Paired ovaries from day 10 mice were treated with or without JASP (10 μM) for 30 min. before analyses of F- and G-actin content. Left lower panel: Real-time RT-PCR analyses of CCN2 transcript levels after 30 min. exposure to JASP. Right panel: Immunoblotting analyses of CCN2 protein levels after 30 min. treatment with JASP. Upper panel: Immunoblotting analyses. Lower panel: quantitative analyses of densitometric scanning data. Numbers in parentheses are number of samples used. * p<0.05. […]

ovaries from day 10 mice = experiment: Ovarian explant cultures: ovarian weight and follicle dynamics; format: cell-based; conditions: for ovarian explant weights: explants from day 10 mice cultured with CCN growth factors for 4 days
Experimental: FIG. 2. […] A, Ovarian fragmentation increased F-actin levels. Paired ovaries from day 10 mice were cut into 3 pieces or kept intact before immunoblotting analyses of F- and G-actin levels (upper panel). Lower panel: F- to G-actin ratios. N=6-11. B, Ovarian fragmentation decreased phospho-YAP(pYAP) levels and pYAP to total YAP ratios. Paired ovaries with or without cutting were incubated for 1 h, followed by immunoblotting. Left panel: representative immunoblots; Right panel: ratios of different antigens. n=8 pairs. C, Ovarian fragmentation increased expression of CCN growth factors and BIRC apoptosis inhibitors. Paired ovaries with or without cutting were incubated for 1 h […] before analyses of transcript levels normalized by GAPDH. Intact ovaries: solid lines; pooled 3 pieces: dashed lines. n=10-15. D, Ovarian fragmentation increased CCN2 proteins. Paired ovaries with or without cutting were incubated for 3-5 h before immunoblotting. Upper panel: representative blots; lower panel: quantitative analyses. N=3-5. E, Treatment with CCN2, 3, 5, and 6 increased ovarian explant weights. Explants from day 10 mice were cultured with different CCN growth factors for 4 days before weighing. n=5-6. Mean±SEM; * p<0.05. IN=Intact; PI=Pieces.
FIG. 6. Increased expression of CCN growth factors and BIRO inhibitors after ovarian fragmentation and the ability of CCN growth factors to promote follicle development. A, Ovarian fragmentation without subsequent grafting increased the expression of key CCN growth factors (CCN2, 3, 5, and 6) and apoptosis inhibitors (BIRC1 and 7). Paired ovaries from day 10 mice with or without cutting into 3 pieces were incubated for up to 7 h before analyses of transcript levels for different genes. Intact ovaries: solid lines; three pieces: dashed lines. n=10-15. B, Increases in CCN2 expression in somatic cells of fragmented ovaries. Paired ovaries from day 10 mice with or without cutting into 3 pieces were cultured for 1 h and then transplanted under kidney capsules. At 3 h after transplantation, ovaries were dissected followed by isolation of oocytes and somatic cells as previously described (2). CCN2 and GAPDH mRNA levels were measured by real-time RT-PCR (n=4). *, P<0.05 vs intact. C. Treatment with CCN growth factors promoted preantral follicle development in ovarian explants. Following explant cultures with different CCN growth factors, follicle dynamics were determined by counting the percentages of follicles at different developmental stages. Mean±SEM; *p<0.05, n=5.
Ovaries from day 10 mice were placed on culture plate insert (Millipore) and cultured in DMEM/F12 containing 0.1% BSA, 0.1% Albumax II, insulin-transferrin-selenium, 0.05 mg/ml L-ascorbic acid and penicillin-streptomycin for 4 days with medium changes after 2 days of culture as described. At the end of culture, ovarian weight was measured and some of the ovaries were embedded for histological analyses of follicle dynamics.
We tested the ability of S1P to promote follicle growth. […] We hypothesized that S1P acts through its receptors in granulosa cells to trigger actin polymerization, disrupt Hippo signaling and promote follicle growth.

oocytes = conditions: intrabursal treatment; cited from earlier work
CCN2 transcripts = experiment: Real-time RT-PCR of CCN2 transcripts after verteporfin pretreatment and ovarian fragmentation; format: in vivo; conditions: day 10 mice injected i.p. for 3 h before fragmentation; 4 h after incubation
Experimental: as §1
(§2) Roles of Hippo signaling and CCN2 in fragmentationinduced follicle growth: YAP has no transcriptional activity and its actions are dependent on downstream transcriptional factors. […]

AMH transcripts = experiment: Real-time RT-PCR of AMH transcripts after verteporfin pretreatment and ovarian fragmentation; format: in vivo; conditions: day 10 mice injected i.p. for 3 h before fragmentation; 4 h after incubation
Experimental: as §1, §2

[1] = pretreatment for 3 h, grafting 5 days

PTEN, sequence (P60484 whole entry): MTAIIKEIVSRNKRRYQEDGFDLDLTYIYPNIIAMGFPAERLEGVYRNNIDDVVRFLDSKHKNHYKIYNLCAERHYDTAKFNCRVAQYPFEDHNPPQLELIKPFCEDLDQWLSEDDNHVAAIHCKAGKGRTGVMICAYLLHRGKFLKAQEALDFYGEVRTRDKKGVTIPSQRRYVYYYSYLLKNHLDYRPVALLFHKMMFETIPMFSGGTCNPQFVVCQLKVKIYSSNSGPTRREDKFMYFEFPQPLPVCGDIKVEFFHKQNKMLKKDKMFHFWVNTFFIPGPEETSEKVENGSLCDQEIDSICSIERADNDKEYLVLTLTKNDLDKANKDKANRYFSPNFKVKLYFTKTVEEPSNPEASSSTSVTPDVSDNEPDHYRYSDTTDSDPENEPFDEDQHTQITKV

In the case of `O=C([O-])c1ccccn1.OO.OO.[K+].[K+].[OH-].[V]` [dipotassium bisperoxo(picolinato)oxovanadate (V)], the IC50 (PTEN) is listed as 31 nM.

For “potassium bisperoxo(bipyridine)oxovanadate (V)”, the IC50 (PTEN) is given as 18 nM.

For “dipotassium bisperoxo(5-hydroxypyridine-2-carboxyl)oxovanadate (V)”, the IC50 (PTEN) is listed as 14 nM.

In the case of `CCCCCCCCCCCCC/C=C/[C@@H](O)[C@@H](N)COP(=O)(O)O` [S1P, sphingosine 1-phosphate], the graft weights (ovarian grafts; 6 μM S1P for 18 h, grafting into adult ovariectomized hosts for 5 days) is listed as “increases in graft weights”, the “ovarian weights in explant culture” value (ovaries from day 10 mice; 6 μM, 4 days, ovaries from day 10 mice) is listed as “major increases in ovarian weights” and the “oocyte apoptosis induced by X-irradiation” value (oocytes) is listed as “suppressed”.

For verteporfin, the “graft weights, intact versus fragmented pairs” value (ovarian grafts; pretreatment for 3 h, fragmentation, grafting into FSH-treated hosts for 5 days) was “no significant changes”, the antral/preovulatory follicles (ovarian grafts; [1]) was “smaller suppression” and the “fragmentation induced increases in late secondary follicles” value (ovarian grafts; [1]) was “prevented”. For the same molecule, the “total follicles in grafts” value (ovarian grafts; [1]) was “no loss of total follicles”, the “fragmentation-induced increases in CCN2 transcripts” value (CCN2 transcripts) was “blocked” and the “transcripts for anti-Müllerian hormone (AMH)” value (AMH transcripts) was “without affecting”.

In the case of `OO.OO.[K+].[OH-].[V].c1cnc2c(c1)ccc1cccnc12` [potassium bisperoxo (1,10-phenanthroline)oxovanadate (V)], the IC50 (PTEN) is listed as 38 nM.

B1: CCN2: CCN growth factor protein, acts downstream of disrupted Hippo signaling (protein, UniProt P29279 27-349, looked up)
CCN family member 2: QNCSGPCRCPDEPAPRCPAGVSLVLDGCGCCRVCAKQLGELCTERDPCDPHKGLFCHFGSPANRKIGVCTAKDGAPCIFGGTVYRSGESFQSSCKYQCTCLDGAVGCMPLCSMDVRLPSPDCPFPRRVKLPGKCCEEWVCDEPKDQTVVGPALAAYRLEDTFGPDPTMIRANCLVQTTEWSACSKTCGMGISTRVTNDNASCRLEKQSRLCMVRPCEADLEENIKKGKKCIRTPKISKPIKFELSGCTSMKTYRAKFCGVCTDGRCCTPHRTTTLPVEFKCPDGEVMKKNMMFIKTCACHYNCPGDNDIFESLYYRKMYGDMA
With B1 the ovarian explant weights (ovaries from day 10 mice) was “dose-dependent increases”.

B2: CCN5: CCN growth factor protein (protein, UniProt O76076 24-250, looked up)
CCN family member 5: QLCPTPCTCPWPPPRCPLGVPLVLDGCGCCRVCARRLGEPCDQLHVCDASQGLVCQPGAGPGGRGALCLLAEDDSSCEVNGRLYREGETFQPHCSIRCRCEDGGFTCVPLCSEDVRLPSWDCPHPRRVEVLGKCCPEWVCGQGGGLGTQPLPAQGPQFSGLVSSLPPGVPCPEWSTAWGPCSTTCGLGMATRVSNQNRFCRLETQRRLCLSRPCPPSRGRSPQNSAF
In the case of B2, the ovarian explant weights (ovaries from day 10 mice) is reported as “dose-dependent increases”.

B3: CCN6: CCN growth factor protein (protein, UniProt O95389 24-354, looked up)
Cellular communication …: TGPLDTTPEGRPGEVSDAPQRKQFCHWPCKCPQQKPRCPPGVSLVRDGCGCCKICAKQPGEICNEADLCDPHKGLYCDYSVDRPRYETGVCAYLVAVGCEFNQVHYHNGQVFQPNPLFSCLCVSGAIGCTPLFIPKLAGSHCSGAKGGKKSDQSNCSLEPLLQQLSTSYKTMPAYRNLPLIWKKKCLVQATKWTPCSRTCGMGISNRVTNENSNCEMRKEKRLCYIQPCDSNILKTIKIPKGKTCQPTFQLSKAEKFVFSGCSSTQSYKPTFCGICLDKRCCIPNKSKMITIQFDCPNEGSFKWKMLWITSCVCQRNCREPGDIFSELKIL
In the case of B3, the ovarian explant weights (ovaries from day 10 mice) is reported as “dose-dependent increases”.

B4: CCN3: CCN growth factor protein (protein, UniProt P48745 32-357, looked up)
CCN family member 3: TQRCPPQCPGRCPATPPTCAPGVRAVLDGCSCCLVCARQRGESCSDLEPCDESSGLYCDRSADPSNQTGICTAVEGDNCVFDGVIYRSGEKFQPSCKFQCTCRDGQIGCVPRCQLDVLLPEPNCPAPRKVEVPGECCEKWICGPDEEDSLGGLTLAAYRPEATLGVEVSDSSVNCIEQTTEWTACSKSCGMGFSTRVTNRNRQCEMLKQTRLCMVRPCEQEPEQPTDKKGKKCLRTKKSLKAIHLQFKNCTSLHTYKPRFCGVCSDGRCCTPHNTKTIQAEFQCSPGQIVKKPVMVIGTCTCHTNCPKNNEAFLQELELKTTRGKM
With B4 the ovarian explant weights (ovaries from day 10 mice) was “dose-dependent increases”.
